Assay results taken from patent US6767887B1, “Exendin analogues, processes for their preparation and medicaments containing them” (Roche Diagnostics GmbH, priority 1999, dated 2004).
Where a SMILES comes first, the peptide text is derived from it. Where no end group is shown, it is not given here. [ ]: non-standard residue; d: D form. Nle = CCCC[C@H](N)C(=O)O

What was measured:
clonal B cell line INS-1 = test: Increase of cytosolic calcium concentration in INS-1 cells (Fura-2); format: cell-based; settings: peptide 10^−8 M, 10 mM glucose
Experimental: Measurement of the Increase of the Cytosolic Calcium Concentration in B Cells of the Endocrine Pancreas (Clonal B Cell Line INS-1)
INS-1 cells are cultured in RPMI 1640 medium containing 10% FCS, 10 mM HEPES buffer (pH 7.4), 2 mM L-glutamine, 100 i.U. penicillin/ml, 100 μg streptomycine/ml, 1 mM pyruvate (sodium salt) and 50 μM 2-mercaptoethanol at 37° C. in an atmosphere of 95% air and 5% CO2. After 6 to 8 days growth on plastic cell culture plates, the subconfluent cells, after rinsing once with PBS (phosphate-buffered saline), are detached from the base by incubating for four minutes at 37° C. with 0.025% trypsin and 0.27 mM EDTA in isoosmotic saline solution
The detached cells are resuspended in Spinner medium (culture medium as above, but containing 5% FCS and 25 mM HEPES) and incubated for two and a half hours in a Spinner bottle with a stirrer bar. Afterwards the medium is removed by centrifugation and the cells are resuspended in Spinner medium. They are then incubated for 30 minutes at 37° C. with 2 μM Fura-2/acetoxymethyl ester under the same conditions as before. The Fura loading of the cells is terminated by washing the cells once Spinner medium (room temperature). Afterwards the cells are resuspended in spinner medium at room temperature (2×10^7 cells/ml). The cells are then removed from this suspension for calcium measurements.
The measurements are carried out at 37° C. in a modified Krebs-Ringer buffer (KRBH) containing 136 mM NaCl, 4.8 mM KCl, 2 mM CaCl2, 1.2 MM MgSO4, 1.2 mM KH2PO4, 5 mM NaNCO3, 10 mM glucose, 250 μM sulfinpyrazone (to inhibit the Fura-2 efflux into the medium) and 25 mM HEPES buffer (adjusted to pH 7.4 with NaOH). The cell concentration is 1-2×10^6/ml. The measurements are carried out in a cuvette stirred with a stirring bar in a spectrofluorimeter at 37° C. with 1.5 ml cell suspension. The excitation wavelength is 340 nm, the emission wavelength is 505 nm. At the end of the measurement 50 μM MnCl2 is added which is followed by 100 μm DTPA (diethylenetriamine pentaacetate) in order to determine the proportion of extracellular fluorescence indicator relative to the measured fluorescence by temporarily quenching the fluorescence of extracellular Fura. After the addition of DTPA the entire Fura is firstly converted into a calcium-saturated and then into a calcium-free state to determine the calibration values Fmax (calcium-saturated) and Fmin (calcium-free) for the respective measurement. For this purpose the cells are lysed by adding 0.1% Triton X-100. The dye is saturated with calcium by contact with the high extracellular calcium concentration. […]
The cytosolic calcium ion concentration is calculated according to the algorithm introduced by R. Tsien and colleagues (Grynkiewicz, G., 1985): […]

[1] = molecular target: dipeptidyl peptidase IV (DDP-IV) (Homo sapiens, UniProt P27487)
dipeptidyl peptidase IV (DDP-IV), sequence (P27487 whole entry): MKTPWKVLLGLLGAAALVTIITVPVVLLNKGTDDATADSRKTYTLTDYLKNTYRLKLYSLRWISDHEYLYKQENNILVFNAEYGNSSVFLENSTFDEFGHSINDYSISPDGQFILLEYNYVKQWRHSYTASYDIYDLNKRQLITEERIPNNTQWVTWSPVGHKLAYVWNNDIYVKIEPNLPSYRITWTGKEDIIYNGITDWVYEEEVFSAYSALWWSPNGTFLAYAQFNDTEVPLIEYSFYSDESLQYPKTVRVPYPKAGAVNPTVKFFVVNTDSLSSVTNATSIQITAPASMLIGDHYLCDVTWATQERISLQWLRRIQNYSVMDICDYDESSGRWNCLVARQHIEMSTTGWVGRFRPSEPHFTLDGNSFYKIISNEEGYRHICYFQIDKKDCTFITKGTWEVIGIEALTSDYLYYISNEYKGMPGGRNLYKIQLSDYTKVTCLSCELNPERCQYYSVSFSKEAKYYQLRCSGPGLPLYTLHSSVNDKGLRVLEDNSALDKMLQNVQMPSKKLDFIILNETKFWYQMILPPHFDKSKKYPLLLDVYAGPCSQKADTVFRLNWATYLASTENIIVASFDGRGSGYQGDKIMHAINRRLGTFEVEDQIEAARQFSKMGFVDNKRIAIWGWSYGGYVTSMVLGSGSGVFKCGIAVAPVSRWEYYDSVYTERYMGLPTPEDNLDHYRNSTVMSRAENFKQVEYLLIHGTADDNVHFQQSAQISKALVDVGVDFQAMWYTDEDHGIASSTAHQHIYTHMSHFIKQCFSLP
Experimental: Renal brush border microvilli membranes (BBM) are therefore a suitable source for the relevant ectopeptidases and can be used as an in vitro test for the metabolic stability of synthetic peptides. Alternatively it is possible to use ectopeptidase preparations.
(§1) Microvilli membranes (0.5-1 μg protein) or the respective ectopeptidase preparation (60-300 ng) were incubated with 10 μg peptide (about 3 nmol) in 100 μl HEPES buffer (50 mM, pH 7.4) which contained 50 mM NaCl. The reactions were terminated at predetermined times (duration up to 1 hour) by boiling. Subsequently the samples were centrifuged (10,000×g), diluted with 150 μl 0.1% TFA and analysed by means of reversed phase (RP) HPLC. Each sample was determined in duplicate.
A system with the following components was used for HPLC analysis: A 2248 low pressure pump (Pharmacia-LKB, Freiburg), a WISP 10B autoinjector (Millipore-Waters, Eschborn), a UV detector SP-4 (Gynkotec, Berlin), a low pressure mixing system (Pharmacia-LKB, Freiburg) and a program manager software control (Pharmacia-LKB, Freiburg). […] After injection of 244 μl of the sample solution onto a column equilibrated with the motile solvent A, the incubation products were eluted with a linear gradient of 0% to 80% B in 80 min and detected at 215 nm UV absorption. […]

[2] = tested on: brush border microvilli membranes (BBM); settings: pH 7.4
Experimental: Renal brush border microvilli membranes (BBM) are therefore a suitable source for the relevant ectopeptidases and can be used as an in vitro test for the metabolic stability of synthetic peptides.
Microvilli membranes of the rat and pig kidney cortex are isolated by means of subcellular fractionation using the differential centrifugation method (Booth and Kenny (1975)). 4 Brush border ectopeptidases are examined fluorimetrically and other marker enzymes are measured colorimetrically in order to assess the degree of purity and the yield of membranes.
as §1
A system with the following components was used for HPLC analysis: A 2248 low pressure pump (Pharmacia-LKB, Freiburg), a WISP 10B autoinjector (Millipore-Waters, Eschborn), a UV detector SP-4 (Gynkotec, Berlin), a low pressure mixing system (Pharmacia-LKB, Freiburg) and a program manager software control (Pharmacia-LKB, Freiburg). […]

isolated islet cells = test: Insulin release from isolated islets; format: cell-based, mice
Experimental: The abdomen of anaesthetised (0.3-0.5 ml nembutal/isotonic saline solution 1:4 i.p.) mice is opened by a median incision and two side incisions, the peritoneum is immobilized and cut open at the costal arch along the diaphragm. All organs are inflated and stained red by injection of a neutral red solution into the left ventricle. The pancreas is carefully removed along the stomach and duodenum up to the mesenteries. Until digestion the pancreas is placed in an ice-cooled petri dish in Hank's balanced salt solution (HBBS) and a few drops of neutral red.
Two pancreases are dabbed with cellulose, placed in a tube, 5 ml freshly prepared collagenase solution (collagenase (Cl. histolyticum) 0.74 U/mg, Serva, 2 mg/ml in HBBS/water 1:9, pH 7.4) is added and they are incubated for 18 minutes at 37° C. while shaking. Subsequently a centrifugation is carried out at 1000 rpm for 1 minute. The supernatant is discarded, In a second digestion step 5 ml collagenase solution (1 mg/ml) is incubated for 4 minutes, shaken and undigested tissue is sedimented. The supernatant is decanted and the whole process is repeated four to five times. The supernatant is then centrifuged for 1 minute at 1000 rpm and the collagenase solution is discarded. The remaining pellet is shaken with ice-cold HBBS and sedimented for ca. 10 minutes on ice. This wash process is repeated for a further three times. The faint pink stained islets are picked out from the washed pellets under a stereoscopic magnifying glass and transferred to culture medium (100 ml RPMI 1640 (Gibco), 1 ml glutamine, 1 ml penicillin, 1 ml Cibrobay antibiotic (Bayer), 10 ml foetal calf serum, 2 ml Hepes buffer 1 M). In order to obtain the purest possible culture, the islets are picked two to three times and transferred to fresh culture medium.
The islet cells from the culture medium are distributed in Eppendorff vessels containing […] stimulation buffer (118 mM NaCl, 0.2 mM NaH^2PO^4, 0.565 mM MgCl^2, 1.25 mM CaCl^2, 4.1 mM KCl, 10 mM Hepes, 1% BSA, 3.3 mM glucose; pH 7.4) in a quantity of 10 islets per Eppendorff vessel and placed in an incubator for 1 hour at 37° C. Subsequently the peptides to be tested are added and filled up to […] with stimulation buffer and incubated for one hour at 37° C. The islets are centrifuged at 1000 rpm for 1 minute. The amount of […] is measured in the supernatant using an insulin-RIA (DPC Biermann, Nauheim). Each test substance was determined in quadruplicate.
Some exendin analogues were tested as described above on isolated islet cells for insulin secretory activity.
Insulin Release From Isolated Islets After 1 Hour [mIU/h/10 Islets] in the Presence of 10 mM Glucose: […]

With “10 (HGEGTFTSDLSKQMEEEAVRAFIEWLKAGR) [compound 10]” the “Δ[Ca^2+]cyt ± SD (n = 4)” value (clonal B cell line INS-1) was 69 ± 30 nM.
In the case of CCCC[C@H](NC(=O)[C@H](CCC(N)=O)NC(=O)[C@H](CCCCN)NC(=O)[C@H](CO)NC(=O)[C@H](CC(C)C)NC(=O)[C@H](CC(=O)O)NC(=O)[C@H](CO)NC(=O)[C@@H](NC(=O)[C@H](Cc1ccccc1)NC(=O)[C@@H](NC(=O)CNC(=O)[C@H](CC(=O)O)NC(=O)[C@H](C)NC(=O)[C@@H](N)Cc1c[nH]cn1)[C@@H](C)O)[C@@H](C)O)C(=O)N[C@@H](CCC(=O)O)C(=O)N[C@@H](CCC(=O)O)C(=O)N[C@@H](CCC(=O)O)C(=O)N[C@@H](C)C(=O)N[C@H](C(=O)N[C@@H](CCCNC(=N)N)C(=O)N[C@@H](CC(C)C)C(=O)N[C@@H](Cc1ccccc1)C(=O)N[C@H](C(=O)N[C@@H](CCC(=O)O)C(=O)N[C@@H](Cc1c[nH]c2ccccc12)C(=O)N[C@@H](CC(C)C)C(=O)N[C@@H](CCCCN)C(=O)N[C@@H](CC(N)=O)C(=O)NCC(=O)N[C@@H](CCCNC(=N)N)C(N)=O)[C@@H](C)CC)C(C)C [compound 78] (H-HADGTFTSDLSKQ[Nle]EEEAVRLFIEWLKNGR-NH2), the “Substrate for DDP-IV” value [1] is reported as “no proteolysis”.
With CCCC[C@H](NC(=O)[C@H](CCC(N)=O)NC(=O)[C@H](CCCCN)NC(=O)[C@H](CO)NC(=O)[C@H](CC(C)C)NC(=O)[C@H](CC(=O)O)NC(=O)[C@H](CO)NC(=O)[C@@H](NC(=O)[C@H](Cc1ccccc1)NC(=O)[C@@H](NC(=O)CNC(=O)[C@H](CC(=O)O)NC(=O)[C@H](CCCCN)NC(=O)[C@@H](N)Cc1c[nH]cn1)[C@@H](C)O)[C@@H](C)O)C(=O)N[C@@H](CCC(=O)O)C(=O)N[C@@H](CCC(=O)O)C(=O)N[C@@H](CCC(=O)O)C(=O)N[C@@H](C)C(=O)N[C@H](C(=O)N[C@@H](CCCNC(=N)N)C(=O)N[C@@H](CC(C)C)C(=O)N[C@@H](Cc1ccccc1)C(=O)N[C@H](C(=O)N[C@@H](CCC(=O)O)C(=O)N[C@@H](Cc1c[nH]c2ccccc12)C(=O)N[C@@H](CC(C)C)C(=O)N[C@@H](CCCCN)C(=O)N[C@@H](CC(N)=O)C(=O)NCC(=O)N[C@@H](CCCNC(=N)N)C(N)=O)[C@@H](C)CC)C(C)C [compound 86] (H-HKDGTFTSDLSKQ[Nle]EEEAVRLFIEWLKNGR-NH2) the Degradation rate [2] was 2.05 ng peptide/min/mg BBM.
With “GLP-1-(7-36)-NH2 [GLP1-(7-36)-NH2, reference compound]” the “Δ[Ca^2+]cyt ± SD (n = 4)” value (clonal B cell line INS-1) was 65 ± 10 nM, the “Insulin release from isolated islets after 1 hour” value (“Insulin release” below) (isolated islet cells; peptide 10^−7, 10 mM glucose) was 53.52 mIU/h/10 Islets and the “Insulin release” value (isolated islet cells; peptide 10^−8, 10 mM glucose) was 42.78 mIU/h/10 Islets. For the same compound, the “Insulin release” value (isolated islet cells; peptide 10^−9, 10 mM glucose) was 29.99 mIU/h/10 Islets.
“[Ala^21, Arg^30]-exendin-4-(1-30)-NH2 [Seq. ID 8]” was tested, and the “Δ[Ca^2+]cyt ± SD (n = 4)” value (clonal B cell line INS-1) was 64 ± 8 nM.
“[H^2 Nle^14R^30]-Ex-3-(1-30)—NH2 (HHDGTFTSDLSKQ[Nle]EEEAVRLFIEWLKNGR-NH2; N-terminus assumed; SMILES CCCC[C@H](NC(=O)[C@H](CCC(N)=O)NC(=O)[C@H](CCCCN)NC(=O)[C@H](CO)NC(=O)[C@H](CC(C)C)NC(=O)[C@H](CC(=O)O)NC(=O)[C@H](CO)NC(=O)[C@@H](NC(=O)[C@H](Cc1ccccc1)NC(=O)[C@@H](NC(=O)CNC(=O)[C@H](CC(=O)O)NC(=O)[C@H](Cc1c[nH]cn1)NC(=O)[C@@H](N)Cc1c[nH]cn1)[C@@H](C)O)[C@@H](C)O)C(=O)N[C@@H](CCC(=O)O)C(=O)N[C@@H](CCC(=O)O)C(=O)N[C@@H](CCC(=O)O)C(=O)N[C@@H](C)C(=O)N[C@H](C(=O)N[C@@H](CCCNC(=N)N)C(=O)N[C@@H](CC(C)C)C(=O)N[C@@H](Cc1ccccc1)C(=O)N[C@H](C(=O)N[C@@H](CCC(=O)O)C(=O)N[C@@H](Cc1c[nH]c2ccccc12)C(=O)N[C@@H](CC(C)C)C(=O)N[C@@H](CCCCN)C(=O)N[C@@H](CC(N)=O)C(=O)NCC(=O)N[C@@H](CCCNC(=N)N)C(N)=O)[C@@H](C)CC)C(C)C) [Seq. ID 84]” was tested, and the “Insulin release” value (isolated islet cells; peptide 10^−7, 10 mM glucose) was 48.94 mIU/h/10 Islets, the “Insulin release” value (isolated islet cells; peptide 10^−8, 10 mM glucose) was 41.72 mIU/h/10 Islets and the “Insulin release” value (isolated islet cells; peptide 10^−9, 10 mM glucose) was 38.76 mIU/h/10 Islets. For the same compound, the “Insulin release” value (isolated islet cells; peptide 10^−10, 10 mM glucose) was 35.05 mIU/h/10 Islets.
In the case of “[Nle^14, Arg^30]-exendin-3-(1-30)-NH2 (HSDGTFTSDLSKQ[Nle]EEEAVRLFIEWLKNGR-NH2; N-terminus assumed; SMILES CCCC[C@H](NC(=O)[C@H](CCC(N)=O)NC(=O)[C@H](CCCCN)NC(=O)[C@H](CO)NC(=O)[C@H](CC(C)C)NC(=O)[C@H](CC(=O)O)NC(=O)[C@H](CO)NC(=O)[C@@H](NC(=O)[C@H](Cc1ccccc1)NC(=O)[C@@H](NC(=O)CNC(=O)[C@H](CC(=O)O)NC(=O)[C@H](CO)NC(=O)[C@@H](N)Cc1c[nH]cn1)[C@@H](C)O)[C@@H](C)O)C(=O)N[C@@H](CCC(=O)O)C(=O)N[C@@H](CCC(=O)O)C(=O)N[C@@H](CCC(=O)O)C(=O)N[C@@H](C)C(=O)N[C@H](C(=O)N[C@@H](CCCNC(=N)N)C(=O)N[C@@H](CC(C)C)C(=O)N[C@@H](Cc1ccccc1)C(=O)N[C@H](C(=O)N[C@@H](CCC(=O)O)C(=O)N[C@@H](Cc1c[nH]c2ccccc12)C(=O)N[C@@H](CC(C)C)C(=O)N[C@@H](CCCCN)C(=O)N[C@@H](CC(N)=O)C(=O)NCC(=O)N[C@@H](CCCNC(=N)N)C(N)=O)[C@@H](C)CC)C(C)C) [Seq. ID 5]”, the “Δ[Ca^2+]cyt ± SD (n = 4)” value (clonal B cell line INS-1) is reported as 63 ± 8 nM.
